The source of these data is patent US11457626B2, “Method for impairing a Cassie-Baxter state” (priority 2016, dated 2022).

One series relates to PLA2. The conditions noted are these: anti-inflammatory; cited from earlier work.
Series [1] can be described thus: solubility / dispersibility of dipicolinic acid in vehicles. The format is physicochemical. The source says: As natural emulsifiers, the use of phosphates also greatly expands the possible range of usable solution/suspensions available for the present invention to concomitantly include, along with these phosphates, other arthropod plastron chemical degraders, such as carboxylic, dipicolinic, oxalic acids and their respective salts, as well as terpenes and low molecular weight non-polar alkanes, including cyclic alkanes. Dipicolinic acid is also dually beneficially to this plastron degrading effect because it is also a potent anti-inflammatory PLA2 inhibitor and thus would help reduce the concomitant skin inflammation associated with demodex infestations (U.S. Pat. No. 6,127,393, Antiproliferative, antiinfective, antiinflammatory, autologous immunization agent and method). […] However, the inventor has discovered that dipicolinic acid is soluble in glycerin, a common skin product ingredient, and is colloidal in low molecular weight non-polar solutions and in hyaluronic acid (a very high molecular weight […] common to the eye).

The conditions of series [2]: cited from earlier work.
A short description of series [3]: acidity relative to oxalic acid. The format is physicochemical. From the text: Further, their respective salts, sodium dipicolinate and monosodium phosphate both have essentially neutral pHs and both are known, powerful natural coordination complex chelators that prefer calcium over sodium in all but basic pH environments. […] This calcium coordination effect is why acidic anions dipicolinic acid and phosphoric acid, as well as their respective salts, are commonly used detergent ingredients (European Patent No. EP 0358472 A2, Detergent Compositions). In addition, phosphates (the phosphoric acid salts) are so safe and non-toxic that they are used as food additives and as emulsifiers.

A further series has as its system demodex mites. The conditions noted are these: mineral oil as control and solvent; cited from earlier work.

As for `O=C(O)c1cccc(C(=O)O)n1` [dipicolinic acid], the PLA2 inhibition entry in the series with PLA2 is given as “potent”. In addition, the solubility in glycerin entry in series [1] (glycerin) is recorded as “soluble”. Besides, the “state in hyaluronic acid” value in series [1] (hyaluronic acid) is on record as “colloidal”. Moreover, the “state in low molecular weight non-polar solutions” value in series [1] (low molecular weight non-polar solutions) is “colloidal”. For the same molecule, the solubility in water entry in series [2] is “limited solubility”. In series [3], the “times less acidic than oxalic acid” value is “about 10 times”.

With `O=P(O)(O)O` [phosphoric acid], the “times less acidic than oxalic acid” value in series [3] was “about 10 times”.

As for `CC1=CCC(O)(C(C)C)CC1` (centres unmarked) [terpinen-4-ol], the “activity against demodex mites among tea tree oil ingredients” value in the series with demodex mites is “most active ingredient”.
